Reference: patent publication US8530460B2, “Azetidine derivatives” (Boehringer Ingelheim International GmbH, priority 2011, dated 2013)

molecular target: human ACC2 (Homo sapiens (Human), UniProt O00763); assay: ACC2 assay (spectrophotometric 384 well assay, NADH-linked coupled lactate dehydrogenase/pyruvate kinase); type: biochemical; conditions: hACC2 construct lacking 128 N-terminal amino acids; 25° C., 340 nm, 15 minutes
Procedure: Spectrophotometric 384 Well Assay
Malonyl CoA formation by acetyl CoA carboxylases is stoichometrically linked to the consumption of ATP. ACC2 activity is measured in a NADH-linked kinetic method measuring ADP generated during the ACC reaction using a coupled lactate dehydrogenase/pyruvate kinase reaction.
For biological testing, a human ACC2 construct which lacks the 128 amino acids at the N-terminus for increased solubility (nt 385-6966 in Genbank entry AJ575592) is cloned. The protein is then expressed in insect cells using a baculoviral expression system. Protein purification is performed by anion exchange.
All compounds are dissolved in dimethyl sulfoxide (DMSO) to a concentration of 10 mM.
Assay reactions are then carried out in 384-well plates, with hACC2 in an appropriate dilution and at final assay concentrations (f.c.) of 100 mM Tris (pH 7.5), 10 mM trisodium citrate, 25 mM KHCO3, 10 mM MgCl2, 0.5 mg/ml BSA, 3.75 mM reduced L-glutathione, 15 U/ml lactate dehydrogenase, 0.5 mM phosphoenolpyruvate, 15 U/ml pyruvate kinase, compounds at different concentrations at final DMSO concentrations of 1%.
The enzymatic reaction is then started by addition of a mixture of NADH, acetyl Coenzyme A (both 200 μM f.c.) and ATP (500 uM f.c.). The decrease of the optical density (slope S) is then determined at 25° C. at a wavelength of 340 nm over 15 minutes in a spectrophotometric reader.
Each assay microtiter plate contains wells with vehicle instead of compound as controls for the non-inhibited enzyme (100% CTL; ‘HIGH’) and wells without acetyl-CoA as controls for non-specific NADH degradation (0% CTL; ‘LOW’).
The slope S is used for calculation of % CTL=(S(compound)−S(‘LOW’))/(S(‘HIGH’)—S(‘LOW’))*100. Compounds will give values between 100% CTL (no inhibition) and 0% CTL (complete inhibition).
For IC50 value determination, the sample slope in the presence of the test compound after subtraction of the low controls (S(compound)−S(‘LOW’)) are used.
An IC50 value is derived from the compound slopes at different dosages after subtraction of the low controls (S(compound)−S(‘LOW’)) by non-linear regression curve fitting (equation y=(A+((B−A)/(1+((C/x)^D))))).

human ACC2, sequence (O00763 129-2458): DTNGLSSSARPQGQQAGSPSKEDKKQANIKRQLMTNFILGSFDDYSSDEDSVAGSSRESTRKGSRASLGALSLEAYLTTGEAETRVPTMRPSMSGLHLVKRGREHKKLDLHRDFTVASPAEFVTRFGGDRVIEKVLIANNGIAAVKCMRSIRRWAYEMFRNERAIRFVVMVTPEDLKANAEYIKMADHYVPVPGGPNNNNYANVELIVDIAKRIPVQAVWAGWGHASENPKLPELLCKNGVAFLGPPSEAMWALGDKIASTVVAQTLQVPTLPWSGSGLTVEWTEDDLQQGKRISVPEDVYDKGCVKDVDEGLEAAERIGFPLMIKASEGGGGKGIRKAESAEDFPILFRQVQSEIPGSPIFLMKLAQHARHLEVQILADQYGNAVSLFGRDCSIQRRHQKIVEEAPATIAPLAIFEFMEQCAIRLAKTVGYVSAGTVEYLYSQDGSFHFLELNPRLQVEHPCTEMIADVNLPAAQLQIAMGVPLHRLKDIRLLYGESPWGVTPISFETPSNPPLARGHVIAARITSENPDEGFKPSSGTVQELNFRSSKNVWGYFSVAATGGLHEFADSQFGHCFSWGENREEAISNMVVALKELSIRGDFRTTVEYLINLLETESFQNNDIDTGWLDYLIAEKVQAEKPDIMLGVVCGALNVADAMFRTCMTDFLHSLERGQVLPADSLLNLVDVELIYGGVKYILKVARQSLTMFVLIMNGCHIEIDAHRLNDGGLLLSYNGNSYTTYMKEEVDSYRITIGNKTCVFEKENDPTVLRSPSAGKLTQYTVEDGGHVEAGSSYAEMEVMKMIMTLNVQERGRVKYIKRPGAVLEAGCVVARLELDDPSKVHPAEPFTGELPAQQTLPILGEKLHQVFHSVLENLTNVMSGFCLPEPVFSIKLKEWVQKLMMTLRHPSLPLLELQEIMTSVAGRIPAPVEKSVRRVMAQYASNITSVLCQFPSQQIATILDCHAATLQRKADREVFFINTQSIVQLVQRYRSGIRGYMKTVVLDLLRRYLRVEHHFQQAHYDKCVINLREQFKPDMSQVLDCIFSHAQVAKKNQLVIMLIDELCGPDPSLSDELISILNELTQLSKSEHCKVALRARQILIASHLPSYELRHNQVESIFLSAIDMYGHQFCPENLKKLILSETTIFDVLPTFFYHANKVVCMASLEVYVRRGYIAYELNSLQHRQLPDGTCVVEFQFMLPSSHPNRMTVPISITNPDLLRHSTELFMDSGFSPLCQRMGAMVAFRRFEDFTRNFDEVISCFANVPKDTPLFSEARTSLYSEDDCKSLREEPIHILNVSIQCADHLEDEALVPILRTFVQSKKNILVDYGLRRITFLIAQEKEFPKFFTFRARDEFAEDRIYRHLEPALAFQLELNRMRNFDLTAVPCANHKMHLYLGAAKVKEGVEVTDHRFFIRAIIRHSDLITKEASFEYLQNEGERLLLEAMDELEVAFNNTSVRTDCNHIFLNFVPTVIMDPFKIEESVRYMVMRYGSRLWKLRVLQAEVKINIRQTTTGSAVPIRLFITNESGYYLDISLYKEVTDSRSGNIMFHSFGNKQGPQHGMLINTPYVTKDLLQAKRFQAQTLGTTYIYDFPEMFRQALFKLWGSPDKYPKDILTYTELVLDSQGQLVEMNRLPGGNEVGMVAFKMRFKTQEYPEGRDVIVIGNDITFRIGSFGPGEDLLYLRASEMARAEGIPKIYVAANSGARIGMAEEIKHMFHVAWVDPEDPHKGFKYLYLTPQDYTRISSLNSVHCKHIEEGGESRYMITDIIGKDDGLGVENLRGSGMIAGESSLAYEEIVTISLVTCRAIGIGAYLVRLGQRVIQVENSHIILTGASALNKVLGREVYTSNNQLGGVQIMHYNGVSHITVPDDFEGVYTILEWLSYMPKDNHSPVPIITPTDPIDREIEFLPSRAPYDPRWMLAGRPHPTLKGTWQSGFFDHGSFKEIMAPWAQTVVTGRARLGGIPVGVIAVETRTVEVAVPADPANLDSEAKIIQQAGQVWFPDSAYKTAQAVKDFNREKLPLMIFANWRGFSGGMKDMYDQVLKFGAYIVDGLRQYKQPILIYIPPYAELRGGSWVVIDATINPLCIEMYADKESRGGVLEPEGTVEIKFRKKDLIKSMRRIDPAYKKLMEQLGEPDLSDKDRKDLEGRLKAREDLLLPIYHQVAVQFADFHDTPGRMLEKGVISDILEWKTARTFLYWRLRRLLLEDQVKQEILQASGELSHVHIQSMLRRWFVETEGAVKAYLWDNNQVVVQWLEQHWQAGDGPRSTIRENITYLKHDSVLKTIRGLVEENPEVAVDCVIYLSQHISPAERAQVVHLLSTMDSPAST

Compound | IC50 [nM]
CCCOc1ccc(N2CC(Oc3ccc([C@H](C)NC(C)=O)cc3)C2)c(C#N)n1 [Example 1.59] | 300
CC(=O)N[C@@H](C)c1ccc(OC2CN(c3ccnc(C(F)(F)F)n3)C2)cc1 [Example 4.9] | 720
CC(=O)N[C@@H](C)c1ccc(OC2CN(c3ccnc(Oc4cncnc4)c3)C2)cc1 [Example 2.9] | 10600
CC(=O)N[C@@H](C)c1ccc(OC2CN(c3cc(C(F)(F)F)ncn3)C2)cc1 [Example 4.14] | 6110
CC(=O)N[C@@H](C)c1ccc(OC2CN(c3ccnc(Oc4ccccc4)c3)C2)cc1 [Example 2.8] | 4100
CCOc1ccc(N2CC(Oc3ccc([C@H](C)NC(C)=O)cc3)C2)cc1 [Example 1.19] | 90
CC(=O)N[C@@H](C)c1ccc(OC2CN(c3ccc(C(F)(F)F)cc3C#N)C2)cc1 [Example 1.23] | 2810
CCOc1ccc(N2CC(Oc3ccc([C@H](C)NC(C)=O)cc3)C2)c(F)c1 [Example 2.3] | 240
CC(=O)N[C@@H](C)c1ccc(OC2CN(c3ccc(OC4CC4)cc3OC3CC3)C2)cc1 [Example 2.4] | 6140
CCCc1cnc(N2CC(Oc3ccc(C(C)NC(C)=O)cc3)C2)nc1 (stereo not drawn) [Example 3.3] | 320
CC(=O)N[C@@H](C)c1ccc(OC2CN(c3ncc(Br)cn3)C2)cc1 [Example 3.1, (S)—N-(1-(4-(1-(5-bromopyrimidin-2-yl)azetidin-3-yloxy)phenyl)ethyl)acetamide] | 210
CCCOc1ccnc(N2CC(Oc3ccc([C@H](C)NC(C)=O)cc3)C2)c1 [Example 2.12] | 4500
CC(=O)NC(C)c1ccc(OC2CN(c3ccc(OC4CC4)cc3)C2)cc1 (stereo not drawn) [Example 1.3] | 530
CC(=O)N[C@@H](C)c1ccc(OC2CN(c3cnc4ccccc4n3)C2)cc1 [Example 4.28] | 360
CC(=O)N[C@@H](C)c1ccc(OC2CN(c3cccc(C(F)(F)F)c3)C2)cc1 [Example 1.56] | 150
CC(=O)N[C@@H](C)c1ccc(OC2CN(c3nc4ccccc4nc3C)C2)cc1 [Example 4.38] | 3050
CC(=O)N[C@@H](C)c1ccc(OC2CN(c3cc4c(cc3F)OCCO4)C2)cc1 [Example 1.57] | 740
CCOC(=O)c1cnc(N2CC(Oc3ccc([C@H](C)NC(C)=O)cc3)C2)nc1C(F)(F)F [Example 4.33] | 1730
CCOc1ccc(N2CC(Oc3ccc([C@H](C)NC(C)=O)cc3)C2)c(C#N)n1 [Example 1.58] | 1390

Compound | IC50 [nM]
CC(=O)N[C@@H](C)c1ccc(OC2CN(c3ncc(C(F)(F)F)cc3F)C2)cc1 [Example 4.31] | 190
CC(=O)N[C@@H](C)c1ccc(OC2CN(c3ncc(OC(C)C)cn3)C2)cc1 [Example 4.34] | 940
CC(=O)N[C@@H](C)c1ccc(OC2CN(c3nccc4ccccc34)C2)cc1 [Example 4.6] | 6230
CCC(=O)N[C@@H](C)c1ccc(OC2CN(c3ncc(C4CC4)cn3)C2)cc1 [Example 9, (S)—N-(1-(4-(1-(5-Cyclopropylpyrimidin-2-yl)azetidin-3-yloxy)phenyl)ethyl)-propionamide] | 1100
CC(=O)N[C@@H](C)c1ccc(OC2CN(c3ccc4oc(C)nc4c3)C2)cc1 [Example 1.27] | 1750
COc1cc(OC2CCC2)ccc1N1CC(Oc2ccc([C@H](C)NC(C)=O)cc2)C1 [Example 1.20] | 490
CC(=O)N[C@@H](C)c1ccc(OC2CN(c3ncc(C4CC4)cn3)C2)cc1 [Example 5.1, (S)—N-(1-(4-(1-(5-Cyclopropylpyrimidin-2-yl)azetidin-3-yloxy)phenyl)ethyl)acetamide] | 170
CC(=O)N[C@@H](C)c1ccc(OC2CN(c3cc(Br)ccn3)C2)cc1 [Example 4.18] | 1800
CC(=O)N[C@@H](C)c1ccc(OC2CN(c3ncc4nc(-c5ccsc5)oc4n3)C2)cc1 [Example 4.26] | 13300
CC(=O)N[C@@H](C)c1ccc(OC2CN(c3cccc(OCC(C)C)c3)C2)cc1 [Example 1.49] | 1130
COc1cc(-c2cnc(N3CC(Oc4ccc([C@H](C)NC(C)=O)cc4)C3)nc2)ccn1 [Example 6.2] | 1740
CC(=O)N[C@@H](C)c1ccc(OC2CN(c3ccc(OC4CC4)cc3C)C2)cc1 [Example 1.44] | 250
COc1cc(OC2CC2)ccc1N1CC(Oc2ccc([C@H](C)NC(C)=O)cc2)C1 [Example 1.43] | 1290
COc1cnc(N2CC(Oc3ccc([C@H](C)NC(C)=O)cc3)C2)nc1 [Example 3.2] | 1120
CCCOc1ccc(N2CC(Oc3ccc([C@H](C)NC(C)=O)cc3)C2)c(Cl)c1 [Example 2.6] | 90
CC(=O)NC(C)c1ccc(OC2CN(c3ncc(C4CC4)cn3)C2)cc1 (stereo not drawn) [Example 6.3] | 150
CC(=O)N[C@@H](C)c1ccc(OC2CN(c3ccc(C4(C#N)CC4)cn3)C2)cc1 [Example 4.12] | 1060
CC(=O)N[C@@H](C)c1ccc(OC2CN(c3nc(C(F)(F)F)ccc3F)C2)cc1 [Example 4.43] | 530
C[C@H](NC(=O)N(C)C)c1ccc(OC2CN(c3ccc4c(c3)OCCO4)C2)cc1 [Example 1.34] | 340

The next lines start with the values.

IC50 [nM] | Compound
2780 | CCOc1ccc(N2CC(Oc3ccc([C@H](C)NC(=O)CCOC)cc3)C2)cc1 [Example 8.26]
7700 | CCCOc1ccc(N2CC(Oc3ccc([C@H](C)NC(=O)C4CC4)cc3)C2)c(OC)c1 [Example 8.1, (S)—N-(1-(4-(1-(2-Methoxy-4-propoxyphenyl)azetidin-3-yloxy)phenyl)ethyl)cyclopropanecarboxamide]
1090 | CCCOc1ccc(N2CC(Oc3ccc([C@H](C)NC(=O)c4cn[nH]c4)cc3)C2)c(OC)c1 [Example 8.3]
8280 | CCCOc1nccc(N2CC(Oc3ccc([C@H](C)NC(C)=O)cc3)C2)n1 [Example 11.6]
1150 | CCOc1ccc(N2CC(Oc3ccc([C@H](C)NC(=O)C4(C)CC4)cc3)C2)cc1 [Example 8.9]
10600 | CC(=O)N[C@@H](C)c1ccc(OC2CN(c3cc(OC(C)C)ncn3)C2)cc1 [Example 11.2]
230 | CCOc1ccc(N2CC(Oc3ccc([C@H](C)NC(=O)OC)cc3)C2)cc1 [Example 10.7]
5200 | CCOc1ccc(N2CC(Oc3ccc([C@H](C)NC(=O)C4CNC(=O)C4)cc3)C2)cc1 (stereo partly drawn) [Example 8.39]
3160 | CCOc1ccc(N2CC(Oc3ccc([C@H](C)NC(=O)c4csc(NC(C)=O)n4)cc3)C2)cc1 [Example 8.35]
3200 | CC(=O)N[C@@H](C)c1ccc(OC2CN(c3cc(OC4CCC4)ncn3)C2)cc1 [Example 11.5]
160 | C[C@H](NC(=O)c1cn[nH]c1)c1ccc(OC2CN(c3ncc(C4CC4)cn3)C2)cc1 [Example 8.5]
1910 | CCOc1ccc(N2CC(Oc3ccc([C@H](C)NC(=O)COC)cc3)C2)cc1 [Example 8.47]
1770 | C[C@H](NC(=O)CC#N)c1ccc(OC2CN(c3ncc(C4CC4)cn3)C2)cc1 [Example 8.6]
690 | CCOc1ccc(N2CC(Oc3ccc([C@H](C)NC(=O)C4CC(F)C4)cc3)C2)cc1 (stereo partly drawn) [Example 8.19]
11800 | CCOc1cc(N2CC(Oc3ccc([C@H](C)NC(C)=O)cc3)C2)ncn1 [Example 11.3]
700 | CCOc1ccc(N2CC(Oc3ccc([C@H](C)NC(=O)C(C)C)cc3)C2)cc1 [Example 8.16]
2840 | CCOc1ccc(N2CC(Oc3ccc([C@H](C)NC(=O)c4cccc(NC(C)=O)c4)cc3)C2)cc1 [Example 8.11]
780 | CC(=O)N[C@@H](C)c1ccc(OC2CN(c3cccc(OC4CCCC4)c3)C2)cc1 [Example 7.3]
480 | CCOc1ccc(N2CC(Oc3ccc([C@H](C)NC(=O)C4CCC4)cc3)C2)cc1 [Example 8.20]
50 | CCOc1ccc(N2CC(Oc3ccc([C@H](C)NC(=O)c4cn[nH]c4)cc3)C2)cc1 [Example 8.7]
700 | CC(=O)N[C@@H](C)c1ccc(OC2CN(c3ccnc(N(C)CC4CC4)n3)C2)cc1 [Example 12.2]
1090 | CCOc1ccc(N2CC(Oc3ccc([C@H](C)NC(=O)c4ccno4)cc3)C2)cc1 [Example 8.31]
